Tests used:
Assay type in all cases: cell-based
[1] = system: Plasmodium falciparum (RB-9); assay: 3H-hypoxanthine uptake, chloroquine resistant strain (RB-9 [sic]); details: for PERCENTAGE INHIBITION (3H-hypoxanthine uptake): RB-9 (so in the source)
Protocol: (§1) The following experiment was done to confirm previous results which were obtained microscopically and details of which are set out in Example 1.
(§2) For this experiment the same two strains of P. falciparum, as used in Example 1 (RB-1 and Fab-9) were again used. Infected erythrocytes were diluted with human O-positive red blood cells to a parasitaemia of 0.2-0.9% and suspended to 3% in RPMI containing 44 mg/l hypxanthine and 10% human type serum. Aliquots (100 μl) of the suspension were dispensed into the wells of 96-well microtitre plates. To these suspensions 100 μl of the medium were added containing either chloroquine or B669 alone or a combination of chloroquine and B669. Relevant solvent controls were included. Negative control wells were also included containing uninfected red blood cells. The plates were incubated at 38° C. in a desiccator gassed with 5% O2, 5% CO2 and 90% N2. After 24 hours 100 μl culture medium of each well was replaced with […] of hypoxathine--free medium containing 10% human serum and 0,5μ Ci^3 H-hypoxanthine and incubated for a further 18 hours. The contents of the wells were then harvested on to glass fibre filters. The filters were washed with distilled water, dried, haemoglobin dissolved in a sodium bicarbonate solution and placed in scintillation vials containing 4 ml scintillation fluid and counted for 5 min in a liquid scintillation counter.
(§3) The percentage inhibition was calculated as follows: [formula] where CPM was the mean of two values of counts per minute for each treatment.

[2] = system: Plasmodium falciparum (Fab-9); assay: 3H-hypoxanthine uptake, chloroquine sensitive strain Fab-9; details: for PERCENTAGE INHIBITION (3H-hypoxanthine uptake): Fab-9
Protocol: as §1, §2, §3

[3] = system: Plasmodium falciparum (Fab-9); assay: Microscopic parasitaemia, chloroquine sensitive strain Fab-9 (reversal of chloroquine resistance); details: for Percentage red blood cells infected with P. falciparum (Fab-9): 24 h
Protocol: (§4) The activity of riminophenazines to reverse chloroquine resistance in Plasmodium falciparum was tested in the following manner:
(§5) A preliminary series of experiments were carried out using two laboratory strains of P. falciparum (RB-1 and Fab-9). These strains were obtained from the Medical Research Council, Durban, where they were characterised as being either mildly resistant or sensitive to chloroquine. The isolates were maintained in suspension culture in known manner (as described by Freese J A, Markus M B and Golenser J, 1991; Bulletin of the World Health Organization 69: 707-712).
(§6) Infected erythrocytes were diluted with human O-positive red blood cells to a parasitaemia of 0.2-0.9% and suspended to 3% in RPMI containing 44 mg/l hypoxanthine and 10% human type O serum. Aliquots (100 μl) of the suspension were dispensed into the wells of 96-well microtitre plates. To these suspensions 100 μl of the medium were added containing either chloroquine or B669 alone or in combination. The final drug concentrations were 31, 62, 125, 250 500 and 1000 nM for chloroquine and 0.125, 0.25, 0.5 and 1.0 μg/ml for B669. Relevant solvent controls were included. The plates were incubated for 24 hours at 38° C. in a desiccator gassed with 5% O2, 5% CO2 and 90% N2. Thin blood smears were prepared from each well, stained with Giemsa stain and the percentage of red blood cells infected by at least one parasite determined microscopically.

[4] = system: Plasmodium falciparum (Fab-9); assay: 3H-hypoxanthine uptake, chloroquine sensitive strain Fab-9; details: read-out: PERCENTAGE INHIBITION (3H-hypoxanthine uptake)
[5] = system: Plasmodium falciparum (RB-1); assay: Microscopic parasitaemia, chloroquine resistant strain RB-1 (reversal of chloroquine resistance); details: for Percentage red blood cells infected with P. falciparum (RB-1): 24 h
Protocol: as §4, §5, §6

[6] = Plasmodium falciparum, read-out: PERCENTAGE INHIBITION (3H-hypoxanthine uptake)
[7] = B669 0.125 μg/ml + chloroquine 31 nM
[8] = B669 0.125 μg/ml + chloroquine 62 nM
[9] = B669 0.125 μg/ml + chloroquine 250 nM
[10] = B669 0.125 μg/ml + chloroquine 500 nM
[11] = B669 0.125 μg/ml + chloroquine 1000 nM
[12] = B669 0.25 μg/ml + chloroquine 62 nM
[13] = B669 0.25 μg/ml + chloroquine 250 nM
[14] = B669 0.25 μg/ml + chloroquine 500 nM
[15] = B669 0.25 μg/ml + chloroquine 1000 nM
[16] = B669 0.5 μg/ml + chloroquine 62 nM
[17] = B669 0.5 μg/ml + chloroquine 125 nM
[18] = B669 0.5 μg/ml + chloroquine 250 nM
[19] = B669 0.5 μg/ml + chloroquine 500 nM
[20] = B669 0.5 μg/ml + chloroquine 1000 nM
[21] = B669 1.0 μg/ml + chloroquine 31 nM
[22] = B669 1.0 μg/ml + chloroquine 62 nM
[23] = B669 1.0 μg/ml + chloroquine 125 nM
[24] = B669 1.0 μg/ml + chloroquine 250 nM
[25] = B669 1.0 μg/ml + chloroquine 500 nM
[26] = B669 1.0 μg/ml + chloroquine 1000 nM
[27] = B669 0.25 μg/ml + chloroquine 31 nM
[28] = B669 0.25 μg/ml + chloroquine 125 nM
[29] = B669 0.25 μg/ml + chloroquine 500 nM, *parasites morphologically abnormal
[30] = B669 1.0 μg/ml alone, *parasites morphologically abnormal

c1ccc(Nc2cc3nc4ccccc4n(-c4ccccc4)c-3cc2=NC2CCCCC2)cc1 [Compound B669, N,5-bis(phenyl)-3,5-dihydro-3-(cyclohexylimino)-2-phenazinamine]
increase of sensitivity to chloroquine, chloroquine resistant strain ([1]; 250 nM chloroquine, 0.125-0.5 μg/ml B669): up to three fold
increase of sensitivity to chloroquine, chloroquine resistant strain ([1]; 125 μM (so in the source) chloroquine, 0.5 and 1.0 μg/ml B669): up to ten fold
inhibition at 0.125 µg/mL [1, 6]: 0%
inhibition at 0.25 µg/mL [1, 6]: 0%
inhibition at 0.5 µg/mL [1, 6]: 0%
inhibition at 1 µg/mL [1, 6]: 0%
PERCENTAGE INHIBITION (3H-hypoxanthine uptake) [1, 7]: 15.2%
PERCENTAGE INHIBITION (3H-hypoxanthine uptake) [1, 8]: 12.2%
PERCENTAGE INHIBITION (3H-hypoxanthine uptake) [1, 9]: 100%
PERCENTAGE INHIBITION (3H-hypoxanthine uptake) [1, 10]: 100%
PERCENTAGE INHIBITION (3H-hypoxanthine uptake) [1, 11]: 100%
PERCENTAGE INHIBITION (3H-hypoxanthine uptake) [1, 12]: 26.4%
PERCENTAGE INHIBITION (3H-hypoxanthine uptake) [1, 13]: 100%
PERCENTAGE INHIBITION (3H-hypoxanthine uptake) [1, 14]: 98.8%
PERCENTAGE INHIBITION (3H-hypoxanthine uptake) [1, 15]: 95%
PERCENTAGE INHIBITION (3H-hypoxanthine uptake) [1, 16]: 16.6%
PERCENTAGE INHIBITION (3H-hypoxanthine uptake) [1, 17]: 92%
PERCENTAGE INHIBITION (3H-hypoxanthine uptake) [1, 18]: 95%
PERCENTAGE INHIBITION (3H-hypoxanthine uptake) [1, 19]: 100%
PERCENTAGE INHIBITION (3H-hypoxanthine uptake) [1, 20]: 100%
PERCENTAGE INHIBITION (3H-hypoxanthine uptake) [1, 21]: 58.6%
PERCENTAGE INHIBITION (3H-hypoxanthine uptake) [1, 22]: 100%
PERCENTAGE INHIBITION (3H-hypoxanthine uptake) [1, 23]: 100%
PERCENTAGE INHIBITION (3H-hypoxanthine uptake) [1, 24]: 100%
PERCENTAGE INHIBITION (3H-hypoxanthine uptake) [1, 25]: 100%
PERCENTAGE INHIBITION (3H-hypoxanthine uptake) [1, 26]: 100%
effects of the experimental drug at low chloroquine concentrations ([1]; chloroquine 31 and 62 nM): Effects of the experimental drug was also seen
effect on sensitivity of chloroquine sensitive strain to chloroquine ([2]; 3H-hypoxanthine uptake): did not increase the sensitivity
sensitivity of chloroquine sensitive strain to B669 alone ([2]; B669 alone 0.125-1.0 μg/ml): sensitive to B669 alone
PERCENTAGE INHIBITION (3H-hypoxanthine uptake) [2, 7]: 12.9%
PERCENTAGE INHIBITION (3H-hypoxanthine uptake) [2, 8]: 7.4%
PERCENTAGE INHIBITION (3H-hypoxanthine uptake) ([2]; B669 0.125 μg/ml + chloroquine 125 nM): 68.3%
PERCENTAGE INHIBITION (3H-hypoxanthine uptake) [2, 9]: 81.4%
PERCENTAGE INHIBITION (3H-hypoxanthine uptake) [2, 10]: 100%
PERCENTAGE INHIBITION (3H-hypoxanthine uptake) [2, 11]: 100%
PERCENTAGE INHIBITION (3H-hypoxanthine uptake) [2, 27]: 21.0%
PERCENTAGE INHIBITION (3H-hypoxanthine uptake) [2, 12]: 0%
PERCENTAGE INHIBITION (3H-hypoxanthine uptake) [2, 28]: 34.9%
PERCENTAGE INHIBITION (3H-hypoxanthine uptake) [2, 13]: 85.5%
PERCENTAGE INHIBITION (3H-hypoxanthine uptake) [2, 14]: 100%
PERCENTAGE INHIBITION (3H-hypoxanthine uptake) [2, 15]: 100%
PERCENTAGE INHIBITION (3H-hypoxanthine uptake) ([2]; B669 0.5 μg/ml + chloroquine 31 nM): 60.5%
PERCENTAGE INHIBITION (3H-hypoxanthine uptake) [2, 16]: 91.7%
PERCENTAGE INHIBITION (3H-hypoxanthine uptake) [2, 17]: 93.6%
PERCENTAGE INHIBITION (3H-hypoxanthine uptake) [2, 18]: 100%
PERCENTAGE INHIBITION (3H-hypoxanthine uptake) [2, 19]: 100%
PERCENTAGE INHIBITION (3H-hypoxanthine uptake) [2, 20]: 100%
PERCENTAGE INHIBITION (3H-hypoxanthine uptake) [2, 21]: 98.8%
PERCENTAGE INHIBITION (3H-hypoxanthine uptake) [2, 22]: 95.9%
PERCENTAGE INHIBITION (3H-hypoxanthine uptake) [2, 23]: 100%
PERCENTAGE INHIBITION (3H-hypoxanthine uptake) [2, 24]: 100%
PERCENTAGE INHIBITION (3H-hypoxanthine uptake) [2, 25]: 100%
PERCENTAGE INHIBITION (3H-hypoxanthine uptake) [2, 26]: 100%
direct anti-malaria activity ([2]; especially chloroquine sensitive strain): Direct anti-malaria activity
Percentage red blood cells infected with P. falciparum (Fab-9) [3, 7]: 3.9%
Percentage red blood cells infected with P. falciparum (Fab-9) [3, 10]: 0.9%
Percentage red blood cells infected with P. falciparum (Fab-9) ([3]; B669 0.125 μg/ml alone): 4.0%
Percentage red blood cells infected with P. falciparum (Fab-9) [3, 27]: 3.1%
Percentage red blood cells infected with P. falciparum (Fab-9) [3, 28]: 2.9%
Percentage red blood cells infected with P. falciparum (Fab-9) [3, 29]: 0.1%
Percentage red blood cells infected with P. falciparum (Fab-9) ([3]; B669 0.25 μg/ml alone): 4.4%
Percentage red blood cells infected with P. falciparum (Fab-9) ([3]; B669 0.5 μg/ml + chloroquine 31 nM, *parasites morphologically abnormal): 2.7%
Percentage red blood cells infected with P. falciparum (Fab-9) [3, 17]: 3.0%
Percentage red blood cells infected with P. falciparum (Fab-9) ([3]; B669 0.5 μg/ml + chloroquine 500 nM, *parasites morphologically abnormal): 0.1%
Percentage red blood cells infected with P. falciparum (Fab-9) ([3]; B669 0.5 μg/ml alone): 3.0%
Percentage red blood cells infected with P. falciparum (Fab-9) [3, 21]: 2.9%
Percentage red blood cells infected with P. falciparum (Fab-9) [3, 23]: 0.9%
Percentage red blood cells infected with P. falciparum (Fab-9) ([3]; B669 1.0 μg/ml + chloroquine 500 nM, *parasites morphologically abnormal): 0.1%
Percentage red blood cells infected with P. falciparum (Fab-9) [3, 30]: 4.1%
direct effect on parasite morphology ([3]; B669 alone 1.0 μg/ml): morphological deterioration of the parasites was observed
percentage parasitaemia versus untreated control systems ([3]; B669 alone 1.0 μg/ml): did not differ from the untreated control systems
effect on sensitivity of chloroquine sensitive strain to chloroquine ([3]; microscopy): did not increase the sensitivity
inhibition at 0.125 µg/mL [4]: 29.8%
inhibition at 0.25 µg/mL [4]: 10.4%
inhibition at 0.5 µg/mL [4]: 41.7%
inhibition at 1 µg/mL [4]: 46.6%
increase of sensitivity to chloroquine, chloroquine resistant strain ([5]; 125 nM chloroquine, 0.125 μg/ml B669): up to two fold
increase of sensitivity to chloroquine, chloroquine resistant strain ([5]; 500 nM chloroquine, 0.25 μg/ml B669): up to three fold
Percentage red blood cells infected with P. falciparum (RB-1) ([5]; B669 0.125 μg/ml + chloroquine 125 nM, *parasites morphologically abnormal): 1.6%
Percentage red blood cells infected with P. falciparum (RB-1) [5, 10]: 1.3%
Percentage red blood cells infected with P. falciparum (RB-1) ([5]; B669 0.125 μg/ml alone): 3.6%
Percentage red blood cells infected with P. falciparum (RB-1) [5, 27]: 3.9%
Percentage red blood cells infected with P. falciparum (RB-1) ([5]; B669 0.25 μg/ml + chloroquine 62 nM, *parasites morphologically abnormal): 2.8%
Percentage red blood cells infected with P. falciparum (RB-1) ([5]; B669 0.25 μg/ml + chloroquine 125 nM, *parasites morphologically abnormal): 1.9%
Percentage red blood cells infected with P. falciparum (RB-1) [5, 29]: 0.9%
Percentage red blood cells infected with P. falciparum (RB-1) [5, 15]: 0%
Percentage red blood cells infected with P. falciparum (RB-1) ([5]; B669 0.25 μg/ml alone): 4.0%
Percentage red blood cells infected with P. falciparum (RB-1) ([5]; B669 0.5 μg/ml + chloroquine 250 nM, *parasites morphologically abnormal): 1.4%
Percentage red blood cells infected with P. falciparum (RB-1) [5, 20]: 0.1%
Percentage red blood cells infected with P. falciparum (RB-1) ([5]; B669 0.5 μg/ml alone): 3.2%
Percentage red blood cells infected with P. falciparum (RB-1) ([5]; B669 1.0 μg/ml + chloroquine 31 nM, *parasites morphologically abnormal): 2.6%
Percentage red blood cells infected with P. falciparum (RB-1) ([5]; B669 1.0 μg/ml + chloroquine 250 nM, *parasites morphologically abnormal): 0.1%
Percentage red blood cells infected with P. falciparum (RB-1) [5, 26]: 0%
Percentage red blood cells infected with P. falciparum (RB-1) [5, 30]: 2.6%
direct effect on parasite morphology ([5]; B669 alone 1.0 μg/ml): morphological deterioration of the parasites was observed
percentage parasitaemia versus untreated control systems ([5]; B669 alone 1.0 μg/ml): did not differ from the untreated control systems
